Experimental data as given in patent US20260262643A1, “HERBICIDAL BENZOXAZINES” (FMC CORPORATION, priority 2022, published 2026).

Columns and labels:
barnyardgrass [1] = assay: Test C preemergence; type: in vivo, Echinochloa crusgalli; conditions: 0 to 100 scale (0 no effect, 100 complete control)
Summary of the method: (§1)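 Greenhouse herbicide screen, 10-day duration. Test chemicals in solvent/surfactant blend were sprayed onto soil at sowing (pre) or onto 2–10 cm seedlings at one to two leaves (post); injury scored visually against controls, 0 no effect to 100 complete control.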

blackgrass [2] = assay: Test C preemergence; type: in vivo, Alopecurus myosuroides; conditions: 0 to 100 scale (0 no effect, 100 complete control)
Summary of the method: as §1

corn [3] = assay: Test C preemergence; type: in vivo, Zea mays; conditions: 0 to 100 scale (0 no effect, 100 complete control)
Summary of the method: as §1

green foxtail [4] = assay: Test C preemergence; type: in vivo, Setaria viridis; conditions: 0 to 100 scale (0 no effect, 100 complete control)
Summary of the method: as §1

kochia [5] = assay: Test C preemergence; type: in vivo, Bassia scoparia; conditions: 0 to 100 scale (0 no effect, 100 complete control)
Summary of the method: as §1

oat, wild [6] = assay: Test C preemergence; type: in vivo, Avena fatua; conditions: 0 to 100 scale (0 no effect, 100 complete control)
Summary of the method: as §1

pigweed, palmer [7] = assay: Test C preemergence; type: in vivo, Amaranthus palmeri; conditions: 0 to 100 scale (0 no effect, 100 complete control)
Summary of the method: as §1

ragweed [8] = assay: Test C preemergence; type: in vivo, Ambrosia artemisiifolia; conditions: 0 to 100 scale (0 no effect, 100 complete control)
Summary of the method: as §1

ryegrass, Italian [9] = assay: Test C preemergence; type: in vivo, Lolium multiflorum; conditions: 0 to 100 scale (0 no effect, 100 complete control)
Summary of the method: as §1

soybean [10] = assay: Test C preemergence; type: in vivo, Glycine max; conditions: 0 to 100 scale (0 no effect, 100 complete control)
Summary of the method: as §1

wheat [11] = assay: Test C preemergence; type: in vivo, Triticum aestivum; conditions: 0 to 100 scale (0 no effect, 100 complete control)
Summary of the method: as §1

barnyardgrass [12] = assay: Test C postemergence; type: in vivo, Echinochloa crusgalli; conditions: 10 days
Summary of the method: as §1

blackgrass [13] = assay: Test C postemergence; type: in vivo, Alopecurus myosuroides; conditions: 10 days
Summary of the method: as §1

corn [14] = assay: Test C postemergence; type: in vivo, Zea mays; conditions: 10 days
Summary of the method: as §1

green foxtail [15] = assay: Test C postemergence; type: in vivo, Setaria viridis; conditions: 10 days
Summary of the method: as §1

kochia [16] = assay: Test C postemergence; type: in vivo, Bassia scoparia; conditions: 10 days
Summary of the method: as §1

oat, wild [17] = assay: Test C postemergence; type: in vivo, Avena fatua; conditions: 10 days
Summary of the method: as §1

pigweed, palmer [18] = assay: Test C postemergence; type: in vivo, Amaranthus palmeri; conditions: 10 days
Summary of the method: as §1

ragweed [19] = assay: Test C postemergence; type: in vivo, Ambrosia artemisiifolia; conditions: 10 days
Summary of the method: as §1

ryegrass, Italian [20] = assay: Test C postemergence; type: in vivo, Lolium multiflorum; conditions: 10 days
Summary of the method: as §1

soybean [21] = assay: Test C postemergence; type: in vivo, Glycine max; conditions: 10 days
Summary of the method: as §1

wheat [22] = assay: Test C postemergence; type: in vivo, Triticum aestivum; conditions: 10 days
Summary of the method: as §1

horseweed = assay: Test C postemergence; type: in vivo, Erigeron canadensis; conditions: 10 days
Summary of the method: as §1

barnyardgrass [23] = assay: Test D flooded paddy test; type: in vivo, Echinochloa crus-galli; conditions: 250 g ai/ha, applied to paddy water, visual rating after 13 to 14 days, scale 0 to 100 (0 no effect, 100 complete control)
Summary of the method: (§2)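 Plants grown to the 2-leaf stage; pots flooded to 3 cm above soil at treatment and held at that depth throughout. Test compounds applied directly to the paddy water. After 13 to 14 days in a greenhouse, response was rated visually versus controls on a 0 (no effect) to 100 (complete control) scale.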

ducksalad = assay: Test D flooded paddy test; type: in vivo, Heteranthera limosa; conditions: 250 g ai/ha, applied to paddy water, visual rating after 13 to 14 days, scale 0 to 100 (0 no effect, 100 complete control)
Summary of the method: as §2

rice = assay: Test D flooded paddy test; type: in vivo, Oryza sativa; conditions: 250 g ai/ha, applied to paddy water, visual rating after 13 to 14 days, scale 0 to 100 (0 no effect, 100 complete control)
Summary of the method: as §2

sedge, umbrella = assay: Test D flooded paddy test; type: in vivo, Cyperus difformis; conditions: 250 g ai/ha, applied to paddy water, visual rating after 13 to 14 days, scale 0 to 100 (0 no effect, 100 complete control)
Summary of the method: as §2

[24] = Preemergence, 500 g ai/ha, visual rating after 10 days
[25] = Test C, preemergence, 125 g ai/ha
[26] = 125 g ai/ha, postemergence, 0 to 100 scale, 0 no effect, 100 complete control
[27] = Postemergence, 500 g ai/ha, visual 0 to 100 scale (0 no effect, 100 complete control)

COc1cc(C(=O)N2C[C@H](C)Oc3c(Cl)cccc32)cc(-n2cnc(C(C)C)n2)c1 [Compound 212]
25: Plant response rating, Barnyardgrass (Flood) (barnyardgrass [23])
70: Plant response rating, Corn (corn [3]; [24]) | Oat, Wild plant response rating (oat, wild [6]; [25]) | Plant response rating, Ragweed (ragweed [19]; [27]) | Plant response rating, Ryegrass, Italian (ryegrass, Italian [20]; [27])
20: Corn plant response rating (corn [3]; [25]) | Plant response rating, Corn (corn [14]; [26]) | Plant response rating, Ragweed (ragweed [19]; [26]) | Plant response rating, Wheat (wheat [22]; [26])
95: Plant response rating, Ducksalad (Flood) (ducksalad)
0: Ragweed plant response rating (ragweed [8]; [25]) | Plant response rating, Horseweed (horseweed; [26])
50: Plant response rating, Ragweed (ragweed [8]; [24]) | Plant response rating, Barnyardgrass (barnyardgrass [12]; [27]) | Plant response rating, Blackgrass (blackgrass [13]; [26]) | Plant response rating, Ryegrass, Italian (ryegrass, Italian [20]; [26]) | Plant response rating, Horseweed (horseweed; [27])
80: Barnyardgrass plant response rating (barnyardgrass [1]; [25]) | Plant response rating, Foxtail, Green (green foxtail [15]; [26]) | Plant response rating, Kochia (kochia [16]; [26]) | Plant response rating, Oat, Wild (oat, wild [17]; [27]) | Plant response rating, Wheat (wheat [22]; [27])
90: Plant response rating, Blackgrass (blackgrass [2]; [24]) | Plant response rating, Kochia (kochia [5]; [24]) | Kochia plant response rating (kochia [5]; [25]) | Plant response rating, Oat, Wild (oat, wild [6]; [24]) | Ryegrass, Italian plant response rating (ryegrass, Italian [9]; [25]) | Soybean plant response rating (soybean [10]; [25]) | Plant response rating, Corn (corn [14]; [27]) | Plant response rating, Foxtail, Green (green foxtail [15]; [27]) | Plant response rating, Kochia (kochia [16]; [27]) | Plant response rating, Pigweed, Palmer (pigweed, palmer [18]; [26]) | Plant response rating, Pigweed, Palmer (pigweed, palmer [18]; [27])
100: Plant response rating, Barnyardgrass (barnyardgrass [1]; [24]) | Plant response rating, Foxtail, Green (green foxtail [4]; [24]) | Foxtail, Green plant response rating (green foxtail [4]; [25]) | Plant response rating, Pigweed, Palmer (pigweed, palmer [7]; [24]) | Pigweed, Palmer plant response rating (pigweed, palmer [7]; [25]) | Plant response rating, Ryegrass, Italian (ryegrass, Italian [9]; [24]) | Plant response rating, Soybean (soybean [10]; [24]) | Plant response rating, Blackgrass (blackgrass [13]; [27]) | Plant response rating, Soybean (soybean [21]; [26]) | Plant response rating, Soybean (soybean [21]; [27])
60: Blackgrass plant response rating (blackgrass [2]; [25])
40: Wheat plant response rating (wheat [11]; [25]) | Plant response rating, Oat, Wild (oat, wild [17]; [26]) | Plant response rating, Rice (Flood) (rice)
98: Plant response rating, Sedge, Umbrella (Flood) (sedge, umbrella)
30: Plant response rating, Wheat (wheat [11]; [24]) | Plant response rating, Barnyardgrass (barnyardgrass [12]; [26])
